From patent US10238688B2, “Combination therapies for bladder cancer” (GENEDIA BIOTECH CO. LTD., priority 2015, dated 2019)

Tests used:
[1] = tested on: bladder cancer cell lines; test: Average cumulative cell survival (ACS) over the panel of cell lines tested; assay type: cell-based, human; settings: for ACS (%): eight cell lines, Table S3, ng/ml: Pi 40, Pa 160, EH 250, Ci 1500, Mi 200, 1=Ci/Mi, 2=EH/Ci/Mi, 3=Pa/Ci/Mi, 4=Pi/Ci/Mi; for ACS (%) for cancer cells: seven cancer cell lines, ng/ml: EH 1000, Ci 6000, Mi 800, Pi 160, Pa 640, Ge 20, EH/Ci/Mi regimen
Description: (§1) The clinical grade of the chemotherapeutics (NCI Dictionary of Cancer Terms) was provided by the First Affiliated Hospital of Harbin Medical University: Pirarubicin (Pi, Wanle, Shenzhen), Paclitaxel (Pa, Taiji, Sichuan), Adriamycin (Ad, Pfizer, Jiangsu), Epirubicin Hydrochloride (EH, Haizheng, Zhejiang), Hydroxycamptothecin (Hy, Lishizhen, Hubei), Cisplatin (Ci, Haosen, Jiangsu), Gemcitabine (Ge, Haosen, Jiangsu) and Mitomycin (Mi, Haizheng, Zhejiang). The drug induced cell death was determined by a thiazolyl […] (MTT, 490 nm reading) based cell proliferation assay in the cultured cells following treatment by various concentrations of drugs for 72 hours. The relative chemoresistance to each drug of all cell lines was calculated with the lowest IC50 as a reference. The overall chemoresistance of each cell line was described as “chemoresistance index”, the numerator of the total relative IC50 to all the drugs over the number of drugs to rank the overall resistance state of each cell line to the six chemotherapeutics collectively.
The “Differential Evolution” algorithm guided experimental optimization (DE) consisted of three iterative operations: generating drug combinations of experimental testing, acquiring the efficacy of the generated drug combinations with biological assays and recalculating further improved drug combinations using a feedback search algorithm. This example first tested twenty drug combinations at randomized doses. These drug combinations were generated from a random integer matrix generator, coded in MATLAB™ language. These twenty drug combinations were then experimentally tested for cancer cell cytotoxicity. The experimental data were then subjected to calculation with a DE algorithm for new drug combinations based on three major mathematical calculations: “Mutation”, “Crossover” and “Selection”. The equations for each step can be found in the main test. The equations for each step are coded in MATLAB™ language.
(§2) Twenty six-drug combinations at the indicated doses were initially generated through a random number generator (using MATLAB MathWorks©, Natick, Mass., U.S.) (The upper half of Table 1). The cell survival (% over the not drug control) of treated cells was determined and then used for a calculation of the average cumulative cell survival (%, ACS: the sum of cell survival (%) per combination divided by the number of cell lines tested). ACS<30% was used to separate the effective from the not-effective combinations. Nine of the twenty combinations tested in the 1st round of iteration fell into this category (the lower half of Table 1).

H-bc = test: MTT cell survival / IC50, H-bc cells; assay type: cell-based, human; settings: H-bc; for Cell survival (%): Table S3, ng/ml: Pi 40, Pa 160, EH 250, Ci 1500, Mi 200, 1=Ci/Mi, 2=EH/Ci/Mi, 3=Pa/Ci/Mi, 4=Pi/Ci/Mi; for Single drug 4X Cell Survival (%): ng/ml: EH 1000, Ci 6000, Mi 800, Pi 160, Pa 640, Ge 20, EH/Ci/Mi regimen
Description: as §1
(§3) The relative IC50 (fold) of each drug of all nine cell lines was normalized to the lowest IC50 in the most sensitive cell line (FIG. 2G), to describe the single drug resistance of cell lines. The overall chemoresistance of each cell line, a “chemoresistance index” (the numerator of the total relative IC50 over the number of drugs) (FIG. 2G) were calculated to rank the overall resistance state of each cell line to this six chemotherapeutics.
as §2, with “combinations.” for “combinations. Nine of the twenty combinations tested in the 1st round of iteration fell into this category (the lower half of Table 1).”

5637 = test: MTT cell survival / IC50, 5637 cells; assay type: cell-based, human; settings: 5637; for Cell survival (%): Table S3, ng/ml: Pi 40, Pa 160, EH 250, Ci 1500, Mi 200, 1=Ci/Mi, 2=EH/Ci/Mi, 3=Pa/Ci/Mi, 4=Pi/Ci/Mi; for Single drug 4X Cell Survival (%): ng/ml: EH 1000, Ci 6000, Mi 800, Pi 160, Pa 640, Ge 20, EH/Ci/Mi regimen
Description: as §1, §3
as §2, with “combinations.” for “combinations. Nine of the twenty combinations tested in the 1st round of iteration fell into this category (the lower half of Table 1).”

SCaBER = test: MTT cell survival / IC50, SCaBER squamous carcinoma cells; assay type: cell-based, human; settings: for Cell survival (%): Table S3, ng/ml: Pi 40, Pa 160, EH 250, Ci 1500, Mi 200, 1=Ci/Mi, 2=EH/Ci/Mi, 3=Pa/Ci/Mi, 4=Pi/Ci/Mi; for Single drug 4X Cell Survival (%): ng/ml: EH 1000, Ci 6000, Mi 800, Pi 160, Pa 640, Ge 20, EH/Ci/Mi regimen
Description: as §1, §3

Biu87 = test: MTT cell survival / IC50, Biu87 cells; assay type: cell-based, human; settings: Biu87; for Cell survival (%): Table S3, ng/ml: Pi 40, Pa 160, EH 250, Ci 1500, Mi 200, 1=Ci/Mi, 2=EH/Ci/Mi, 3=Pa/Ci/Mi, 4=Pi/Ci/Mi; for Single drug 4X Cell Survival (%): ng/ml: EH 1000, Ci 6000, Mi 800, Pi 160, Pa 640, Ge 20, EH/Ci/Mi regimen
Description: as §1, §3
as §2, with “combinations.” for “combinations. Nine of the twenty combinations tested in the 1st round of iteration fell into this category (the lower half of Table 1).”

SV-HUC-1 = assay type: cell-based; settings: SV-HUC-1; ng/ml: EH 1000, Ci 6000, Mi 800, Pi 160, Pa 640, Ge 20; EH/Ci/Mi regimen
Description: as §1, §3

T24 = test: MTT cell survival / IC50, T24 cells; assay type: cell-based, human; settings: for Cell survival (%): Table S3, ng/ml: Pi 40, Pa 160, EH 250, Ci 1500, Mi 200, 1=Ci/Mi, 2=EH/Ci/Mi, 3=Pa/Ci/Mi, 4=Pi/Ci/Mi; for Single drug 4X Cell Survival (%): ng/ml: EH 1000, Ci 6000, Mi 800, Pi 160, Pa 640, Ge 20, EH/Ci/Mi regimen
Description: as §1, §3
as §2, with “combinations.” for “combinations. Nine of the twenty combinations tested in the 1st round of iteration fell into this category (the lower half of Table 1).”

UM-UC-3 = test: MTT cell survival / IC50, UM-UC-3 cells; assay type: cell-based, human; settings: UM-UC-3; for Cell survival (%): Table S3, ng/ml: Pi 40, Pa 160, EH 250, Ci 1500, Mi 200, 1=Ci/Mi, 2=EH/Ci/Mi, 3=Pa/Ci/Mi, 4=Pi/Ci/Mi; for Single drug 4X Cell Survival (%): ng/ml: EH 1000, Ci 6000, Mi 800, Pi 160, Pa 640, Ge 20, EH/Ci/Mi regimen
Description: as §1, §3
as §2, with “combinations.” for “combinations. Nine of the twenty combinations tested in the 1st round of iteration fell into this category (the lower half of Table 1).”

J-82 = test: MTT cell survival / IC50, J-82 cells; assay type: cell-based, human; settings: J82; Table S3; ng/ml: Pi 40, Pa 160, EH 250, Ci 1500, Mi 200; 1=Ci/Mi, 2=EH/Ci/Mi, 3=Pa/Ci/Mi, 4=Pi/Ci/Mi
Description: as §1, §3
as §2, with “combinations.” for “combinations. Nine of the twenty combinations tested in the 1st round of iteration fell into this category (the lower half of Table 1).”

EJ = test: MTT cell survival / IC50, EJ cells; assay type: cell-based, human; settings: for Cell survival (%): Table S3, ng/ml: Pi 40, Pa 160, EH 250, Ci 1500, Mi 200, 1=Ci/Mi, 2=EH/Ci/Mi, 3=Pa/Ci/Mi, 4=Pi/Ci/Mi; for Single drug 4X Cell Survival (%): ng/ml: EH 1000, Ci 6000, Mi 800, Pi 160, Pa 640, Ge 20, EH/Ci/Mi regimen
Description: as §1, §3
as §2, with “combinations.” for “combinations. Nine of the twenty combinations tested in the 1st round of iteration fell into this category (the lower half of Table 1).”

| Compound | ACS (%) [1] [%] | ACS (%) for cancer cells [1] [%] | Cell survival (%) (H-bc) | Single drug 4X Cell Survival (%) (H-bc) | Cell survival (%) 5637 [%] | Single drug 4X Cell Survival (%) 5637 [%] | Cell survival (%) (SCaBER) | Single drug 4X Cell Survival (%) (SCaBER) | Cell survival (%) (Biu87) | Single drug 4X Cell Survival (%) (Biu87) | Single drug 4X Cell Survival (%) (SV-HUC-1) | Cell survival (%) (T24) | Single drug 4X Cell Survival (%) (T24) | Cell survival (%) (UM-UC-3) | Single drug 4X Cell Survival (%) (UM-UC-3) | Cell survival (%) (J-82) | Cell survival (%) (EJ) | Single drug 4X Cell Survival (%) (EJ) |
| --- | --- | --- | --- | --- | --- | --- | --- | --- | --- | --- | --- | --- | --- | --- | --- | --- | --- | --- |
| CC(=O)O[C@H]1C(=O)[C@@]2(C)[C@H]([C@H](OC(=O)c3ccccc3)[C@]3(O)C[C@H](OC(=O)[C@H](O)[C@@H](NC(=O)c4ccccc4)c4ccccc4)C(C)=C1C3(C)C)[C@]1(OC(C)=O)CO[C@@H]1C[C@@H]2O [Pa, Paclitaxel] | 28.08 | 20.89 | 13.96 | 12.89 | 6.45 | 2.09 | 57.91 | 42.21 | 23.08 | 17.58 | 80.17 | 11.55 | 17.31 | 40.09 | 27.74 | 38.51 | 33.05 | 26.38 |
| COc1cccc2c1C(=O)c1c(O)c3c(c(O)c1C2=O)C[C@@](O)(C(=O)CO)CC3O[C@H]1C[C@H](N)[C@H](O[C@@H]2CCCCO2)[C@H](C)O1 (stereo partly drawn) [Pi, (3S)-3-glycoloyl-3,5,12-trihydroxy-10-methoxy-6,11-dioxo-1,2,3,4,6,11-hexahydrotetracen-1-yl 3-amino-2,3,6-trideoxy-4-O-[(2R)-tetrahydro-2H-pyran-2-yl]-α-L-lyxo-hexopyranoside] | 48.44 | 21.32 | 86.89 | 16.04 | 29.22 | 3.48 | 30.04 | 10.24 | 41.67 | 26.98 | 91.79 | 48.33 | 39.8 | 65.59 | 31.44 | 55.37 | 30.38 | 21.25 |
| Nc1ccn([C@@H]2O[C@H](CO)[C@@H](O)C2(F)F)c(=O)n1 [Ge, Gemcitabine] | – | 42.19 | – | 83.17 | – | 30.06 | – | 30.87 | – | 30.82 | 87.83 | – | 41.49 | – | 46.97 | – | – | 31.95 |
